Source: patent publication US20070292405A1, “Uses of Erss Modulators” (priority 2004, published 2007)
pEC50: −log10 of the molar value.

Key:
[1] = biological target: T1, mouse ERα receptor (mERα) (Mus musculus, UniProt P19785); assay: Luciferase reporter assay: transactivation of (ERE)-TK-Luc by ERα in COS cells; type: cell-based; details: for activation of ERα (in words): compound alone, 7HD at similar concentration as for ERβ, ICI 182, 780 at 1 μM
T1 construct: expressed in transfected cells; host or cells: COS (COS-1)
T1 sequence (P19785 1-599): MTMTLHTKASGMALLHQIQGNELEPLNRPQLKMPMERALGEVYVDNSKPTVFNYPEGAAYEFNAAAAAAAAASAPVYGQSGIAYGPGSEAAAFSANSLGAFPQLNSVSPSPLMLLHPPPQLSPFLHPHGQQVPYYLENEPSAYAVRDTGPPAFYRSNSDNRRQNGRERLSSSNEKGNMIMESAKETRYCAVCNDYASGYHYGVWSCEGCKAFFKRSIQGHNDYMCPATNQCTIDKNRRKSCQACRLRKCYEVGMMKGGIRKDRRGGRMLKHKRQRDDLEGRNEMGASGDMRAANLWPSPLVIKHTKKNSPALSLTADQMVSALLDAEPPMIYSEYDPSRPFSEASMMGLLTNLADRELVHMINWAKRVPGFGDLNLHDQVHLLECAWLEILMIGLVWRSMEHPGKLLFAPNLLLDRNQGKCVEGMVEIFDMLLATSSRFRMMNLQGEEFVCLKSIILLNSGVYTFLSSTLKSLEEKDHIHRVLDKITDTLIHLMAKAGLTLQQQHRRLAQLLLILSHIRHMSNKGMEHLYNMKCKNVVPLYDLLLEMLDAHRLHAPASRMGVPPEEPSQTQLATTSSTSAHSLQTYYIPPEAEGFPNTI
Procedure: (§1) Values shown are means (±S.E.M.) of 3 to 5 independent experiments each carried out in triplicate.
(§2) COS-1 cells and HepG2 cells were maintained in high glucose Dulbecco's minimum essential medium (DMEM) containing penicillin (25 units/ml), streptomycin (25 μg/ml), and 10% fetal calf serum (v/v). Cells were seeded at a density of 5×10^5 cells/dish and left to adhere overnight. On the day of the transfection, the medium was replaced with DMEM lacking phenol red supplemented with 10% DCC-FCS (v/v). Transfections were carried out using the calcium phosphate procedure according to standard protocols with 10 μg DNA ([…] expression plasmid, 1-5 μg reporter plasmid, 1 μg pCH110 encoding β-galactosidase used as internal control (Pharmacia) and 3-7 μg pGEM3). Expession plasmid were: the mouse ERα receptor (mERα gift from Prof. M. Parker, London U.K. (31)), human ERβ. receptor (hERβ; from Dr R. White, London U.K. (32)) and human androgen receptor (pSVARo; Prof. A. Brinkman, Rotterdam Holand). […] Reporter plasmids were: (ERE)-TK-Luc (gift From Dr V. Giguere, Montreal, Canada) for estrogen responsivity and PSA (PSA61-luc, Prof. J. Trapman, Rotterdam Holland) for androgen responsivity. […] Following cell lysis, luciferase and β-galactosidase activities were measured as described (33). Data are expressed as relative luciferase/β-galactosidase and are means±S.E.M. from at least three independent experiments.
(§3) Both COS-1 cells and HepG2 cells were used and both these cell lines require exogenous AR, ERα and ERβ to activate androgen (PSA) or estrogen (ERE) responsive reporter genes.

3β-HSD = assay: Production of A/anedione from DHEA in human prostate chips (TLC); type: biochemical; details: 1 μM trilostane
[2] = biological target: T2, human ERβ receptor (hERβ) (Homo sapiens, UniProt Q92731); assay: Luciferase reporter assay: transactivation of (ERE)-TK-Luc by ERβ in HepG2 cells; type: cell-based
T2 construct: expressed in transfected cells; host or cells: HepG2
Procedure: as §1, §2, §3

human ERβ receptor = biological target: T3, human ERβ receptor (Homo sapiens, UniProt Q92731); assay: Ligand-competition study: [3H]-E2 binding to in vitro synthesised ERβ protein; details: 7HD 0-250 μM, 16 h, reticulocyte lysate
T3 construct: made in house; host or cells: cell-free: TnT-coupled reticulocyte lysate system (Promega)
Procedure: Reticulocyte lysate containing ERβ protein was equilibrated for 16 h with […] [3H]-E2 and the indicated fold excess of 7HD. Data represent [3H]-E2 bound in presence of 7HD (0-250 μM). [3H]-E2 binding in the absence of 7HD was set at 100%. *, p<0.001 and γ, p<0.01; 7HD vs control without 7HD.
Human ERβ clone was synthesised in vitro using the TnT-coupled reticulocyte lysate system following manufacturer instructions (Promega, Southampton, U.K.). Translation reaction mixtures were diluted five times with TEDGMo buffer (40 mM Tris/Hcl, pH 7.4/1 mM EDTA/10% (vol/vol) glycerol/10 mMNa2MoO4/10 mM DTT) and 0.1 ml aliquots were incubated for 16 h at 4° C. with 0.5 nM [2,4,6,7-^3H]4-E2 (specific radioactivity 89 Ci/mmol) in presence of either 0, 1, 5, 10, 20, 50 and 250 μM of 7HD. Bound and unbound steroids were separated by filtration.
The ability of 7HD to inhibit [^3H]-E2 binding was also measured by a competition binding assay using human ERβ receptor synthesised in vitro from our human ERβ clone (hERβ) using a TnT-coupled reticulocyte lysate system (FIG. 7). In our competition study, 7HD interacted with ERβ receptor and inhibited [^3H]-E2 binding dose-dependently.

[3] = biological target: T4, human androgen receptor (hAR) (Homo sapiens, UniProt P10275); assay: Luciferase reporter assay: transactivation of PSA-Luc reporter in COS-1 cells containing hAR; type: cell-based
T4 construct: expressed in transfected cells; host or cells: COS-1
T4 sequence (P10275 1-920): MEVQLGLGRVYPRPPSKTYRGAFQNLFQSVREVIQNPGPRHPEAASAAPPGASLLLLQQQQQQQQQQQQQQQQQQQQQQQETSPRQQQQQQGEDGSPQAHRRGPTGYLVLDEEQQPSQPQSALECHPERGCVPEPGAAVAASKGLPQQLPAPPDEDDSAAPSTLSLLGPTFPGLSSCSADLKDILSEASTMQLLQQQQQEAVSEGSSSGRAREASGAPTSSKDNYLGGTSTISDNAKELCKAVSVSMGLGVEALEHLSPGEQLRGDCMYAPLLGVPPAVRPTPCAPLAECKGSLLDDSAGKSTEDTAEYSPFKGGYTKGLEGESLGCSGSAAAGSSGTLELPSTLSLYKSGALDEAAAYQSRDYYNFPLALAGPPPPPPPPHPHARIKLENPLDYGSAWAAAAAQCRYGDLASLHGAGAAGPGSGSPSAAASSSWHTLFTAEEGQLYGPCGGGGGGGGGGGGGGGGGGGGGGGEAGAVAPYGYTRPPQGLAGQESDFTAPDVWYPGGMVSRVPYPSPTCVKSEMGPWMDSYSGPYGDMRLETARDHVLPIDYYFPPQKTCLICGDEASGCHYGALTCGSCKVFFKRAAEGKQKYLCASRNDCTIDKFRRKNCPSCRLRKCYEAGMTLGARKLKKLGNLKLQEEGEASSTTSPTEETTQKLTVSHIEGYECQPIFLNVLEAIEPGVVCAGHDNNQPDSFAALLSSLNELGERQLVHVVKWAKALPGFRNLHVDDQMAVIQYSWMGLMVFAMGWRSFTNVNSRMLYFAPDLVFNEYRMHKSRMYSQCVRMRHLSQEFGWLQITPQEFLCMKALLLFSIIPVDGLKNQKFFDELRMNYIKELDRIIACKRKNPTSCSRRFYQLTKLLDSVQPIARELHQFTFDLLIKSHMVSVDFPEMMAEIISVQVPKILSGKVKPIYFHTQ
Procedure: as §1
COS-1 cells and HepG2 cells were maintained in high glucose Dulbecco's minimum essential medium (DMEM) containing penicillin (25 units/ml), streptomycin (25 μg/ml), and 10% fetal calf serum (v/v). Cells were seeded at a density of 5×10^5 cells/dish and left to adhere overnight. On the day of the transfection, the medium was replaced with DMEM lacking phenol red supplemented with 10% DCC-FCS (v/v). Transfections were carried out using the calcium phosphate procedure according to standard protocols with 10 μg DNA ([…] expression plasmid, 1-5 μg reporter plasmid, 1 μg pCH110 encoding β-galactosidase used as internal control (Pharmacia) and 3-7 μg pGEM3). Expession plasmid were: the mouse ERα receptor (mERα gift from Prof. M. Parker, London U.K. (31)), human ERβ. receptor (hERβ; from Dr R. White, London U.K. (32)) and human androgen receptor (pSVARo; Prof. A. Brinkman, Rotterdam Holand). […] Following cell lysis, luciferase and β-galactosidase activities were measured as described (33). Data are expressed as relative luciferase/β-galactosidase and are means±S.E.M. from at least three independent experiments. […]

[4] = tested on: whole human prostate chips; assay: DHEA metabolism in whole human prostate chips, metabolites analysed by HPLC; type: in vitro ADME

T2 sequence (Q92731 whole entry): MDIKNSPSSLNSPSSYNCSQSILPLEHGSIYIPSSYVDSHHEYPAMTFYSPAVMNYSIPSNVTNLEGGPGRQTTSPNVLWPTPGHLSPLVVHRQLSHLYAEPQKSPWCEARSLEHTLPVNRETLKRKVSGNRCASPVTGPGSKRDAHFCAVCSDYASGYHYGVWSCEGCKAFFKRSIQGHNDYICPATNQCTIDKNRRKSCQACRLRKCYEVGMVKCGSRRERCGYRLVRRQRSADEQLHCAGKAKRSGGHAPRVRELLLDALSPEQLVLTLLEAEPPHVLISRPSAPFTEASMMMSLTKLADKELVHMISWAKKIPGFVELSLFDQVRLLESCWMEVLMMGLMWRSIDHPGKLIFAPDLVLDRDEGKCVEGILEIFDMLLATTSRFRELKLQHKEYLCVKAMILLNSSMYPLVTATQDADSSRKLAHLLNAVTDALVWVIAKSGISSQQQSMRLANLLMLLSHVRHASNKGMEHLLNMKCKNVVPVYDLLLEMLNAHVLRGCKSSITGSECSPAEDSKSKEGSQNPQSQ
T3 sequence (Q92731 whole entry): as above

C[C@]12CC[C@@H]3c4ccc(O)cc4C[C@@H](CCCCCCCCC[S+]([O-])CCCC(F)(F)C(F)(F)F)[C@H]3[C@@H]1CC[C@@H]2O (some centres unmarked) [ICI 182, 780]
effect on E2 and 7HD-induced transcription of luciferase, ERα co-transfected cells ([1]; 1 μM): completely abolished | activation of ERα (in words) [1]: could not stimulate

C[C@]12CC[C@H]3[C@@H](CC[C@@]45O[C@@H]4C(O)=C(C#N)C[C@]35C)[C@@H]1CC[C@@H]2O [Trilostane]
effect on production of A/anedione (3β-HSD): successfully blocked

C[C@]12CC[C@H](O)CC1=C[C@@H](O)[C@@H]1[C@@H]2CC[C@]2(C)C(=O)CC[C@@H]12 [7HD, 7α-hydroxyDHEA]
pEC50 ([2]; (ERE)-TK-Luc, HepG2 cells, read-out: EC50 of activation of ERβ-mediated transcription): 5.21 | transcriptional effect combined with sub-minimal dose of E2 ([2]; E2 0.1 nM, p<0.01): additive | activation of ERβ-mediated transcription (in words) ([2]; compound alone, ICI 182, 780 at 1 μM): significantly activated | activation of ERα (in words) [1]: minimal, non-specific activation | inhibition of [3H]-E2 binding to ERβ (human ERβ receptor): dose-dependently | activation of androgen receptor dependent transcription of PSA-luciferase reporter (in words) [3]: unable to activate

C[C@]12CC[C@H](O)CC1=CC[C@@H]1[C@@H]2CC[C@]2(C)C(=O)CC[C@@H]12 [DHEA, dehydroepiandosterone]
share of DHEA metabolites that represent A/enetriol [4]: 9% | share of DHEA metabolites that were products of 3β-HSD and 17β-HSD [4]: 37%
